In paper PMC3528769, “Comparative Study of the Fatty Acid Binding Process of a New FABP from Cherax quadricarinatus by Fluorescence Intensity, Lifetime and Anisotropy” (PLoS ONE, 2012):
“And” between values parts separate entries of the source, which are not always exact repeats. Identical values can stand only once. Like-named read-outs stand apart in the source and are kept apart here. Blank lines part the entries; values can stand above or below the molecule they belong to.

Key:
[1] = target: T1, Cq-FABP (Cherax quadricarinatus, UniProt L0I6Z9); assay: Steady-state FRET between the single Trp (W49) and ANS, Trp quenching and recovery by PA; assay type: binding
Description: (§1) Fluorescence emission spectra were measured at 25°C on a Cary-Eclipse spectrofluorimeter (Varian, CA, USA) equipped with a thermostated cell holder, using solutions (70 µl) placed in microcuvettes (pathlength, 0.3 cm). The binding of non-fluorescent fatty acids (PA, OA, LA, EPA and DHA) to Cq-FABP was measured indirectly by equilibrium displacement experiments using ANS as a fluorescent probe, either by measuring the fluorescence emission of ANS or by measuring the FRET between tryptophan and ANS, resulting in the quenching of donor fluorescence. The excitation wavelength was then set at 296 or 350 nm for tryptophan or ANS, respectively; the slit widths and PMT voltage were adjusted to optimize the fluorescence signal at 25°C. For titration experiments, the fluorescence emission spectrum of tryptophan or ANS was measured and the integrated fluorescence signal of tryptophan (315–360 nm) or ANS (440–600 nm) was calculated. For samples containing high concentrations of ANS, the inner-filter effect was not negligible and was corrected. UV-visible absorption spectra were carried out on a Uvikon XL spectrophotometer.

[2] = target: T1, Cq-FABP; assay: Time-resolved Trp fluorescence lifetime (single-photon counting) with ANS and PA; assay type: binding; settings: for FRET efficiency: from lifetimes; for Δ%FRET,max based on lifetime values: without versus with 70 µM PA
Description: The distribution of fluorescence lifetimes of tryptophan was determined by monitoring the intensity decay, I(t), using the single-photon counting technique [27]–[31]. Briefly, the excitation light pulse source was a Ti:sapphire laser (Mai Tai femtosecond laser, Spectra Physics, Mountain View, CA, USA) associated with a third harmonic generator tuned to 296 nm. The laser frequency was reduced from 80 to 8 MHz using a pulse picker (Spectra Physics). Fluorescence emission was detected by a microchannel plate photomultiplier (Hamamatsu model R3809U-05) through a monochromator (ARC SpectraPro-150) set at 340 nm (Δλ = 15 nm) with the emission polarizer set at the magic angle (54.7°). A time-correlated single-photon counting SPC-430 card (Becker–Hickl, Berlin, Germany) was used for the acquisition. Experiments were performed at 25°C using 5 µM Cq-FABP in buffer C. The average fluorescence lifetime values (τm), as reported in Table 1, were calculated from the lifetime distributions recovered by the maximum entropy method, [29], [32]. For example, Cq-FABP alone was characterized by three fluorescence lifetimes (τ1 = 0.6 ns (6%), τ2 = 2.67 ns (53%), τ3 = 3.89 (41%); τm = 3.04 ns).

[3] = target: FABP4; set-up: method as in PMID 11827549; settings: ref [6]; read-out: Kd of ANS; cited from earlier work
[4] = target: T1, Cq-FABP; assay: ANS fluorescence intensity titration and equilibrium displacement of ANS by fatty acids; assay type: binding
Description: as §1
The equilibrium dissociation constant (Kd,FA) relative to the binding of fatty acids (FA) to Cq-FABP was determined by competition experiments using ANS displacement and linear regression of the following relationship: [drawing 1] (1) where Kd,ANS is the dissociation constant relative to the binding of ANS to the fatty acid binding site, Kd ^app ,ANS is the apparent dissociation constant of ANS obtained in the presence of a given fatty acid concentration.

[5] = target: T1, Cq-FABP; assay: BODIPY-C16 steady-state fluorescence anisotropy titration and competition; assay type: binding
Description: The binding of 4,4-difluoro-5, 7-dimethyl-4-bora-3a, 4a-diaza-s-indacene-3-hexadecanoic acid (BODIPY-C16) to Cq-FABP was investigated by measuring the steady-state fluorescence anisotropy parameter using a Beacon instrument (PanVera, Madison, USA), in a cell thermostatically held at 25°C. The excitation and emission bandpass filters were centered at 488 nm (±6 nm) and 525 nm (±15 nm), respectively. Titration experiments were performed in buffer C (supplemented with 10% DMSO (v/v)) by maintening a constant concentration of BODIPY-C16 (200 nM) and by adding increasing concentrations of Cq-FABP. Using a vertical direction for the polarized excitation source, the steady-state fluorescence anisotropy (r) was calculated according to: [drawing 3] (3) where IV and IH correspond to the parallel (vertical) and perpendicular (horizontal) fluorescence emission intensity components, respectively. The fraction of BODIPY-C16/Cq-FABP complexes (i.e. the fraction of BODIPY-C16 bound to Cq-FABP), fb, was calculated using the following relationship: [drawing 4] (4) where r is the measured fluorescence anisotropy value, rf and rb correspond to the fluorescence anisotropy values of free BODIPY-C16 (ligand in the free state, measured in the absence of Cq-FABP) and Cq-FABP-bound BODIPY-C16 (ligand in the bound state, corresponding to the maximum anisotropy value found at the plateau), respectively. […] The Kd characterizing the BODIPY-C16/Cq-FABP complex (Kd,C16) was calculated by fitting the plot of fb versus [Cq-FABP] using the Graphpad Prism 5.0 software.
The fluorescence anisotropy-based assay was also used in competition experiments to calculate the Kd values (Kd,FA) characterizing non-fluorescent fatty acids. The measurement of the apparent Kd value characterizing the BODIPY-C16/Cq-FABP complex (Kd ^app ,C16) under different concentration conditions for the non-fluorescent FA allows the calculation of Kd,FA according to: [drawing 5] (5) where Kd,C16 corresponds to the Kd characterizing the BODIPY-C16/Cq-FABP complex (in the absence of any non-fluorescent FA) and Kd ^app ,C16 corresponds to the apparent dissociation constant obtained for a given concentration of non-fluorescent FA. The calculation of Kd,FA was also performed in an independent manner by measuring the IC50 value characterizing each non-fluorescent FA. In this approach, the number of complexes corresponding to [C16] = 200 nM and [Cq-FABP] = 5 µM was varied by increasing the concentration of non-fluorescent FA. The IC50 value corresponds to the concentration of non-fluorescent FA that displaces 50% of C16 from the fatty acid binding site of Cq-FABP and is related to Kd,FA through the Cheng-Prusoff relationship: [drawing 6] (6)

[6] = target: T1, Cq-FABP; assay: DAUDA fluorescence intensity enhancement; assay type: binding; settings: 5 µM Cq-FABP versus free DAUDA (Fig. S3A)
Text: Cis-parinaric acid and DAUDA were characterized by fluorescence emission in the 380–500 nm region (λmax,em: 410 nm) and in the 480–650 nm region (λmax,em: 540 nm), respectively (excitation wavelengths were set at 320 or 335 nm for cis-parinaric acid or DAUDA, respectively). The fluorescence intensity enhancement upon binding to Cq-FABP was monitored on a Cary-Eclipse spectrofluorimeter as indicated above. All the fluorescence emission intensities were corrected for the inner-filter effect. The emission intensity of a given fluorophore in the presence of Cq-FABP was also systematically corrected for the emission intensity of the free fluorophore. The calculation of Kd,FA was performed by measuring the IC50 value (inhibition concentration 50%) characterizing each non-fluorescent FA. As DAUDA poorly binds to Cq-FABP (see results section), only cis-parinaric acid (CPA) was used for measuring IC50 values. Titration and equilibrium displacement experiments using CPA were performed in buffer C (supplemented with 10% DMSO (v/v)). For the determination of IC50 values, the number of complexes corresponding to [CPA] = 7 µM and [Cq-FABP] = 5 µM was varied by increasing the concentration of non-fluorescent FA. […]

[7] = target: T1, Cq-FABP; assay: cis-Parinaric acid fluorescence intensity titration and competitive displacement; assay type: binding
Text: Cis-parinaric acid and DAUDA were characterized by fluorescence emission in the 380–500 nm region (λmax,em: 410 nm) and in the 480–650 nm region (λmax,em: 540 nm), respectively (excitation wavelengths were set at 320 or 335 nm for cis-parinaric acid or DAUDA, respectively). The fluorescence intensity enhancement upon binding to Cq-FABP was monitored on a Cary-Eclipse spectrofluorimeter as indicated above. All the fluorescence emission intensities were corrected for the inner-filter effect. The emission intensity of a given fluorophore in the presence of Cq-FABP was also systematically corrected for the emission intensity of the free fluorophore. The calculation of Kd,FA was performed by measuring the IC50 value (inhibition concentration 50%) characterizing each non-fluorescent FA. As DAUDA poorly binds to Cq-FABP (see results section), only cis-parinaric acid (CPA) was used for measuring IC50 values. Titration and equilibrium displacement experiments using CPA were performed in buffer C (supplemented with 10% DMSO (v/v)). For the determination of IC50 values, the number of complexes corresponding to [CPA] = 7 µM and [Cq-FABP] = 5 µM was varied by increasing the concentration of non-fluorescent FA. The IC50 value corresponds to the concentration of non-fluorescent FA that displaces 50% of CPA from the fatty acid binding site of Cq-FABP and is related to Kd,FA through the Cheng-Prusoff relationship: [drawing 2] (2)

[8] = 200 nM BODIPY-C16, 5 µM Cq-FABP, read-out: IC50 (displaces 50% of BODIPY-C16 from the fatty acid binding site)
[9] = calculated from the IC50 values, using Eq. 6, 200 nM BODIPY-C16, 5 µM Cq-FABP, read-out: Kd,FA
[10] = calculated from the Kd app,C16 values, using Eq. 5, 200 nM BODIPY-C16, read-out: Kd,FA
[11] = calculated from the IC50 values (Eq. 2) using the fluorescence intensity of cis-parinaric acid, 7 µM CPA, 5 µM Cq-FABP, read-out: Kd,FA
[12] = calculated from equilibrium displacement experiments using the fluorescence intensity of ANS (Eq. 1), read-out: Kd,FA

T1 sequence (L0I6Z9 entry or part of it): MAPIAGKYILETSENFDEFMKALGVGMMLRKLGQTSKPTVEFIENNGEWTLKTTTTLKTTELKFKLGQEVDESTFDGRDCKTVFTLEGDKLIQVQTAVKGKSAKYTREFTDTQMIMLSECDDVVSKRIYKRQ

Compound: O=S(=O)(O)c1cccc2cccc(Nc3ccccc3)c12 [ANS, 8-Anilino-1-naphthalenesulfonate]
Kd ([1]; from Δ%FRET versus [ANS] (Fig. 4D), binding to fatty acid binding site only, read-out: Kd,ANS): 27.6 µM | Kd ([1]; quenching of Trp steady-state emission by ANS, specific plus non specific binding (Fig. 4A), read-out: apparent Kd of ANS): ~100 µM | Δ%FRET,max (plateau) ([1]; steady-state fluorescence intensities, amplitude between [PA]0 and [PA]+∞ (Fig. 4D)): 10% | Average fluorescence Lifetime, τm ([2]; 5 µM Cq-FABP + 5 µM ANS): 2.85 ns | FRET efficiency ([2]; 5 µM Cq-FABP + 5 µM ANS): 6.2% | Average fluorescence Lifetime, τm ([2]; 5 µM Cq-FABP + 10 µM ANS): 2.75 ns | FRET efficiency ([2]; 5 µM Cq-FABP + 10 µM ANS): 9.5% | Average fluorescence Lifetime, τm ([2]; 5 µM Cq-FABP + 50 µM ANS): 2.39 ns | FRET efficiency ([2]; 5 µM Cq-FABP + 50 µM ANS): 21.4% | Average fluorescence Lifetime, τm ([2]; 5 µM Cq-FABP + 200 µM ANS): 2.00 ns | FRET efficiency ([2]; 5 µM Cq-FABP + 200 µM ANS): 34.2% | Δ%FRET,max based on lifetime values ([2]; [ANS] = 50 µM): 12.5% | Δ%FRET,max based on lifetime values ([2]; [ANS] = 200 µM): 11.2% | Kd [3]: 1.7 µM | Kd ([4]; average of the Kd,ANS values from the intensity and FRET procedures, read-out: average Kd,ANS): 27.9 µM | Kd ([4]; direct titration, 5 µM Cq-FABP, 25°C, after removing free ANS and non specific contributions (Fig. 2B), read-out: Kd,ANS): 30 µM and ~30 µM | Kd ([4]; from displacement amplitude ΔI by PA plotted against [ANS] (Fig. 2D), 5 µM Cq-FABP, read-out: Kd,ANS): 26 µM | Kd ([4]; y-intercept of Kd app,ANS versus [PA] linear regression (Fig. 3B), read-out: Kd,ANS): 27.8 µM

Compound: Cc1cc(C)n2c1C=C1C=CC(CCCCCCCCCCCCCCCC(=O)O)=[N+]1[B-]2(F)F [BODIPY-C16, 4,4-difluoro-5,7-dimethyl-4-bora-3a, 4a-diaza-s-indacene-3-hexadecanoic acid, reference compound]
Kd ([5]; direct titration, 200 nM BODIPY-C16, increasing Cq-FABP, 25°C, 10% DMSO, read-out: Kd,C16): 3.1 µM

Compound: CN(C)c1cccc2c(S(=O)(=O)NCCCCCCCCCCC(=O)O)cccc12 [DAUDA, 11-((5-dimethylaminonaphthalene-1-sulphonyl)amino)-undecanoic acid, reference compound]
binding of DAUDA by fluorescence enhancement [6]: does not bind or only poorly binds | IC50 [5, 8]: 263 µM | Kd ([5]; from IC50 according to the Cheng-Prusoff relationship, 200 nM BODIPY-C16, 5 µM Cq-FABP, read-out: apparent Kd of Cq-FABP/DAUDA complex): ~250 µM

Compound: CCCCCCCC/C=C\CCCCCCCC(=O)O [OA, oleic acid]
IC50 [5]: 2.23 µM | Kd ([5]; Kd,FA, calculated from the IC50 values, using Eq. 6, 200 nM BODIPY-C16, 5 µM Cq-FABP): 2.15 ± 0.4 µM | Kd ([5]; Kd,FA, calculated from the Kd app,C16 values, using Eq. 5, 200 nM BODIPY-C16): 2.6 ± 0.3 µM | Kd [7]: 1.3 ± 0.6 µM | Kd [4]: 2.4 ± 0.4 µM

Results, then the molecule that gave them:

IC50 [5, 8]: 7.67 µM | Kd [5, 9]: 7.4 ± 0.7 µM | Kd [5, 10]: 6.6 ± 0.5 µM | Kd [7, 11]: 4.4 ± 0.8 µM | Kd [4, 12]: 5.8 ± 0.3 µM
Compound: CC/C=C\C/C=C\C/C=C\C/C=C\C/C=C\C/C=C\CCC(=O)O [DHA, cis-4,7,10,13,16,19-docosahexaenoic acid]

IC50 [5, 8]: 2.29 µM | Kd [5, 9]: 2.2 ± 0.4 µM | Kd [5, 10]: 3.5 ± 0.4 µM | Kd [4, 12]: 2.9 ± 0.3 µM
Compound: CC/C=C\C/C=C\C/C=C\C/C=C\C/C=C\CCCC(=O)O [EPA, cis-5,8,11,14,17-eicosapentaenoic acid]

IC50 [5, 8]: 3.53 µM | Kd [5, 9]: 3.4 ± 0.4 µM | Kd [5, 10]: 3 ± 0.4 µM | Kd [7, 11]: 3.3 ± 0.7 µM | Kd [4, 12]: 3.1 ± 0.5 µM
Compound: CCCCC/C=C\C/C=C\CCCCCCCC(=O)O [LA, linoleic acid]

Kd ([7]; fluorescence enhancement upon binding, 5 µM Cq-FABP, buffer C + 10% DMSO (Fig. S3B), read-out: Kd of cis-parinaric acid): 31.2 µM
Compound: CC\C=C/C=C/C=C/C=C\CCCCCCCC(=O)O [cis-parinaric acid, reference compound]
